Experiments:
Assay type in all cases: in vivo, human
[1] = Phase I pharmacokinetic study: serum total iron concentration; conditions: for maximum mean serum total iron concentration: Day 1, iron-deficient subjects
Protocol: (§1) These studies were primarily pharmacokinetic and conducted in subjects with iron deficiency having active inflammatory disease or acute chronic inflammation. An open-label, randomised, single and repeat dose parallel group Phase I pharmacokinetic study was carried out to evaluate the effect of single and repeated twice daily (bid) oral doses of ST10 at 30 mg, 60 mg and 90 mg for 8 days.
(§2) 24 subjects with iron deficiency (with or without anaemia) were randomly allocated to one of the three ST10 dose groups as follows:
(§3) Group 1: 9 subjects received ST10, 30 mg twice daily for 7 days (days 1-7) plus a final 30 mg dose on the morning of day 8.
(§4) Group 2: 8 subjects received ST10, 60 mg twice daily for 7 days (days 1-7) plus a final 60 mg dose on the morning of day 8.
(§5) Group 3: 7 subjects received ST10, 90 mg twice daily for 7 days (days 1-7) plus a final 90 mg dose on the morning of day 8.
(§6) On day 1, following fasting for at least 1.5-2 hours beforehand, ST10 was administered (30 mg, 60 mg or 90 mg) and blood samples collected over the following 6 h for analysis. 60 mg was administered as two 30 mg capsules and 90 mg was administered as three 30 mg capsules, both as a single dose. Subjects continued dosing with ST10 on the evening of day 1 then every morning and evening for the next 6 days (Days 2 to 7).
On day 8 following fasting for at least 1.5-2 hours beforehand the last dosing of ST10 was administered (30 mg, 60 mg or 90 mg) and blood samples collected over the following 6 h for analysis.
On Days 1 and 8 blood samples were collected predose (0 h=time of ST10 dose) and at 5 minutes(for NTBI only), 15 minutes, 30 minutes, 45 minutes, and 1, 1.5, 2, 3, 4 and 6 h postdose.
These studies used transferrin saturation and total serum iron as measurements of iron uptake from the gut into the transport mechanisms. In addition serum ferritin was used as a measure of iron storage status at the end of the dosing period; all of these measurements are standard and well recognised.
One subject in the 60 mg dose group prematurely withdrew from the study on Day 7, so full profiles of all serum iron parameters were available in the 30 mg dose group for 9 subjects (days 1 and 8), in the 60 mg dose group 8 subjects on day 1 and for 7 subjects on day 8, and in the 90 mg dose group for 7 subjects (days 1 and 8).

[2] = Phase I pharmacokinetic study: tolerability; conditions: doses above 30 mg and up to 90 mg twice daily, 8 days, iron-deficient subjects with active inflammatory disease
Protocol: as §1, §2, §3, §4, §5

[3] = Phase I pharmacokinetic study: total iron binding capacity (TIBC); conditions: over time and across 30, 60, 90 mg dose groups
Protocol: as §1, §6
On day 8 following fasting for at least 1.5-2 hours beforehand the last dosing of ST10 was administered (30 mg, 60 mg or 90 mg) and blood samples collected over the following 6 h for analysis. […]
Serum concentrations of transferrin, total iron binding capacity (TIBC), ferritin and soluble transferrin receptor; and reticulocyte haemoglobin concentrations (CHr) in whole blood were measured by central laboratories using appropriately validated methods. […]

maximum mean serum total iron concentration ([1]; 30 mg oral dose group): 32.3 µmol/L | maximum mean serum total iron concentration ([1]; 60 mg oral dose group): 49.1 µmol/L | maximum mean serum total iron concentration ([1]; 90 mg oral dose group): 48.7 µmol/L | serum total iron concentrations on Day 8 versus Day 1 ([1]; Day 8, 30, 60, 90 mg dose groups): Comparable
Substance: ferric trimaltol [ST10]
tolerability [2]: well tolerated | total iron binding capacity, mean concentration [3]: approximately 70 μmol/L

Reference: US10786514B2, “Dosage regiment of ferric maltol” (Shield TX (UK) Limited, priority 2015, dated 2020)
